Laboratory results reported in US20260317304A1, “TEAD INHIBITORS AND METHODS OF USE” (Sporos BioDiscovery, Inc., priority 2022, published 2026).
pEC50, pIC50: −log10 of the molar value. Entries after “also recorded” stand apart in the source; their conditions may differ.

What was measured:
TEAD1 [1] = target: TEAD1 (Homo sapiens, UniProt P28347); assay: TEAD thermal shift assay (TSA); format: binding
Description: (§1) Thermal shift assay (TSA) is a biophysical method to evaluate stability of proteins with change in temperature. The assay measures thermal denaturation temperature in varying conditions such as different drug concentration. For this example, fluorogenic dye was used that bind to unfolded proteins. SYPRO Orange binds non-specifically to hydrophobic surfaces, and water strongly quenches its fluorescence. When the protein unfolds, the exposed hydrophobic surfaces bind the dye, resulting in an increase in fluorescence by excluding water. Detergent micelles also bind the dye and increase background noise dramatically. Binding of small molecules to proteins leads to a stabilization against to thermal denaturation with the degree of thermal stabilization proportional to the strength of binding.
(§2) The study described in this example investigated the change in melting temperature (ΔTm) of TEAD isoforms 1-4 when treated with TEAD inhibitors.
(§3) Tris-HCL was dissolved in 5 mL of Cell culture grade water and allowed to dissolve completely. The pH was adjusted to 8 using NaOH. Additional assay buffer components were added in the order listed above. The buffer was mixed slowly.
(§4) Assay buffer was prepared according to the procedures outlined above and dispensed into test wells. Spyro orange was added to a concentration of 5× in the assay buffer, followed by test compound stock solution which was added to a concentration of 10 μM or 30 μM in the assay buffer.
(§5) The melt cycle was performed in Bio-RAD PCR instrument from 20-95° C. with ramp rate of 1° C./min.

TEAD2 [2] = target: TEAD2 (Homo sapiens, UniProt Q15562); assay: TEAD thermal shift assay (TSA); format: binding
Description: as §1, §2, §3, §4, §5

TEAD3 [3] = target: TEAD3 (Homo sapiens, UniProt Q99594); assay: TEAD thermal shift assay (TSA); format: binding
Description: as §1, §2, §3, §4, §5

TEAD4 [4] = target: TEAD4 (Homo sapiens, UniProt Q15561); assay: TEAD thermal shift assay (TSA); format: binding
Description: as §1, §2, §3, §4, §5

TEAD isoforms 1-4 [5] = assay: TEAD thermal shift assay (TSA), outcome in words; format: binding, human
Description: as §1, §2, §3, §4, §5

TEAD = conditions: control compounds; cited from earlier work
TEAD1 [6] = conditions: thermal shift; cited from earlier work
TEAD2 [7] = conditions: thermal shift; cited from earlier work
TEAD3 [8] = conditions: thermal shift; cited from earlier work
TEAD4 [9] = conditions: thermal shift; cited from earlier work
TEAD isoforms 1-4 [10] = conditions: thermal shift data of Tang and Post; cited from earlier work
NCI-H226 cells [11] = assay: Proliferation and cell viability assay, CellTiter-Glo 2.0 (CTG); format: cell-based, human; conditions: Homo sapiens, NCI-H226, responder cell line, 144 hrs
Protocol: (§6) Cell proliferation of a TEAD dependent NF2-null mesothelioma cell line, NCI-H226 was assayed using two different protocols. Results were confirmed in two different TEAD-non-dependent lung cancer cell lines, H23 and H28, were used as non-responsive controls, as indicated:
a) CellTiter-Glo® 2.0 (Promega #G9243). The effect of the TEAD inhibitors disclosed herein on cell proliferation was determined in TEAD1-genetically dependent cell line NCI-H226 (responder cell line) and TEAD-independent cell lines (NCI-H23, HEK293T), as non-responder, negative control. Cells were seeded in 96-well plates (Thermo Scientific #167008) in growth media (RPMI-1640, Gibco #61870-010) for NCI-H226 and NCI-H23 or DMEM (Gibco #31966-021, HEK293T) with […] Heat Inactivated Fetal Bovine Serum (Gibco 10500-064) at 800 (NCI-H226 and HEK-293T) or 2000 (NCI-H23) cells per well at 37° C., […], humidified incubator; 24 hours later, fresh growth media containing test compound or DMSO vehicle was added and incubated with the cells for 144 hrs. TEAD inhibitor stocks were made at a 1000× fold excess in DMSO, and a dose response test compound dose range of 10,000 to 0.1 nM was used. Each treatment was carried out in triplicate. After 144 hrs of treatment, relative cell viability numbers were determined using the CellTiter-Glo 2.0 assay following the manufacturer's instructions. Test plates and CellTiter-Glo 2.0 reagent were allowed to equilibrate to room temperature. CellTiter-Glo 2.0 reagent was added at 1:1 reagent to media ratio to the 96-well cell plates, plates were placed on a plate shaker for 2 minutes and then incubated at room temperature for a further 10 minutes to allow complete cell lysis to occur. The mix was then transferred to white, 96-well luminometer assay plates (Greiner Bio One #655075). Luminescence was quantified using a CLARIOStar Plus multi-mode plate reader (BMG Labtech) in luminescence detection mode with the recommended settings (ultra-Glo pre-set: emission 545-50 nm with autofocus and enhanced dynamic range on). Relative cell density was expressed as a function of inhibitor concentration, with respect to DMSO-only control wells. Data where plotted using GraphPad Prism and IC50 values for the biological effect were calculated using the EC50 non-linear fit function using a sigmoidal, 4-parameter logistic, least squares fit with no constraints.
(§7) For IC50 and EC50 data “A” indicates a value of less than 0.2 μM; the symbol “B” indicates a value in the range of from 0.2 μM up to 1 μM; and the symbol “C” indicates a value of greater than 1 μM. ND: no data.

NCI-H23 cells = assay: as above; format: cell-based; conditions: Homo sapiens, non-responder cell line, 144 hrs
Protocol: as §6
a) CellTiter-Glo® 2.0 (Promega #G9243). The effect of the TEAD inhibitors disclosed herein on cell proliferation was determined in TEAD1-genetically dependent cell line NCI-H226 (responder cell line) and TEAD-independent cell lines (NCI-H23, HEK293T), as non-responder, negative control. […] After 144 hrs of treatment, relative cell viability numbers were determined using the CellTiter-Glo 2.0 assay following the manufacturer's instructions. […] Luminescence was quantified using a CLARIOStar Plus multi-mode plate reader (BMG Labtech) in luminescence detection mode with the recommended settings (ultra-Glo pre-set: emission 545-50 nm with autofocus and enhanced dynamic range on). Relative cell density was expressed as a function of inhibitor concentration, with respect to DMSO-only control wells. Data where plotted using GraphPad Prism and IC50 values for the biological effect were calculated using the EC50 non-linear fit function using a sigmoidal, 4-parameter logistic, least squares fit with no constraints. […]

NCI-H226 cells [12] = assay: Proliferation and cell viability assay, Cell Titer One; format: cell-based, human; conditions: Homo sapiens, NCI-H226, 144 h, Cell Titer One assay, 6 days
Protocol: as §6
b) Cell Titer One (Promega, #G3582). The effect of the TEAD inhibitors disclosed herein on cell proliferation was also determined using the Promega Substrate Cell Titer Aqueous One Solution Reagent. The TEAD inhibitors were evaluated for the effects on cell proliferation responder (H226) and non-responder negative control cancer cell lines (CAMA1, H28), as well as non-transformed normal human cells (HUVEC, NHDF). Dissociated cells were resuspend in media (depending on cell line, either in DMEM, RPMI, or EMEM all with 10% FBS, with gentamicin as an antibiotic). Cells were seeded at 100 μL/well at 750 cells per well in 96-well plates and allowed to settle and attach. After an incubation of 24 hrs (37° C., 5% CO2, humidified incubator), 100 μL of test compound-containing media was added. A dilution series of 2000× concentrated stock of test compounds was prepared in DMSO, for final concentrations from 0.1 to 10,000 nM. After addition of test compound-containing media, cells were incubated for 6 days at 37° C., 5% CO2, humidified incubators). To measure cell density, 20 μL of Promega Substrate Cell Titer 96 Aqueous One Solution Reagent (Promega, #G3582) to each well was added according to the manufacturer's instructions. Plates were incubated at 37° C. for usually 3-8 hrs, to reach in the control cells (without compound) an OD of 1.5 at 490 nm. The OD was measured using Vmax [Molecular Devices] spectrophotometer plate reader. Media only-wells were used as background controls and cell densities normalized to DMSO vehicle control. EC50 were taken as the concentration achieving 50% of maximal growth inhibition.
as §7

SDM103T2 cells = assay: SDM103T2 proliferation and cell viability assay (CTG); format: cell-based; conditions: 144 hours
Protocol: SDM103T2 cells were trypsinised, counted and plated at 800 cells/well in 200 μl of growth media in 96 well flat bottom tissue culture treated plates. The plated cells were incubated overnight at 37° C., 5% CO2 before being treated with compounds in triplicate for each assay point. 50 μl of the serially diluted compound was added to each well giving a final DMSO concentration of 0.5% per well and a total volume of 250 μl per well. The treated cells were incubated for 144 hours (6 days) at 37° C., 5% CO2. Following compound treatment the remaining viable cells were detected using the Promega CellTiter-Glo 2.0 assay as follows: 150 μl of media was removed from each of the wells to be assayed and 100 μl of room temperature CellTiter-Glo 2.0 reagent was added. The plate was placed on an orbital shaker at 500 rpm at room temperature for 2 minutes, and then incubated without shaking for a further 10 minutes at room temperature. 150 μl of cell lysate was removed from each well and dispensed into a single well of a white opaque 96 well plate. Luminescence at 545 nm was read using a BMG CLARIOstar plate reader. The luminescent signal was directly proportional to number of viable cells, the percent of viable cells relative to the DMSO control was then calculated for each assay point. Percent viability relative to DMSO control was plotted against compound concentration and a curve fitted with non-linear regression in GraphPad Prism software. EC50 and absolute IC50 values were calculated using GraphPad Prism software as follows: For EC50 values a non-constrained four-parameter logistic curve fit was used (Sigmoidal, 4PL, X is concentration). For Absolute IC50 values the baseline was constrained to Y=0 and top at 100 (Absolute IC50, X is concentration). Area Under the Curve (AUC): Prism computes area-under-the-curve by the trapezoidal method. The analysis sees a fitted curve as simply a series of connected XY points. Prism simply computes the area under the “curve” defined by connecting the points by straight lines. The units of the AUC are the units of the Y axis times units of the X axis.
For EC50 data, the symbol “A” indicates a value of less than 0.2 μM; the symbol “B” indicates a value in the range of from 0.2 μM up to 1 μM; and the symbol “C” indicates a value of greater than 1 μM.

MSTO-211H xenograft = assay: Mouse xenograft MSTO-211H tumors compared to prior art TEAD inhibitor; format: in vivo, BALB/c nude mice; conditions: 7 days of treatment, PO BID, 3 mg/kg Compound 1-1
Protocol: This study evaluated the in vivo anti-tumor efficacy of test compounds in BALB/c nude mice for treatment of MSTO-211H xenograft of lung cancer.
The MSTO-211H tumor cells were maintained in vitro in RPMI 1640 medium supplemented with 10% Fetal bovine serum and 1% Antibiotic-Antimycotic at 37° C. in an atmosphere of 5% CO2 in air. The tumor cells were routinely subcultured twice weekly by trypsin-EDTA. The cells growing in an exponential growth phase were harvested and counted for tumor inoculation.
Each mouse was inoculated subcutaneously at the right flank with MSTO-211H tumor cells (10×10^6+50% matrigel/0.2 mL) for tumor development. Test subjects received vehicle (e.g., 0.5% CMC-Na+1% Tween80) beginning on day 7 after cell inoculation. […]
The major endpoint was to determine if the tumor growth could be delayed. Tumor size was measured twice a week in two dimensions using a caliper, and the volume was expressed in mm^3 using the formula: V=0.5 a×b^2 where a and b are the long and short diameters of the tumor, respectively. […]
Summary statistics, including mean and the standard error of the mean (SEM), were calculated for the tumor volume of each group at each time point. […]
One-tailed T test was performed to compare tumor volumes between two groups. All data were analyzed using GraphPad Prism 6.0. p<0.05 was considered to be statistically significant.

[13] = as reported by Tang et al.; cited from earlier work
[14] = Ratio of Protein to Compound 1:1
[15] = Ratio of Protein to Compound 1:3

Sequence of TEAD4 (Homo sapiens, UniProt Q15561) (Q15561 whole entry): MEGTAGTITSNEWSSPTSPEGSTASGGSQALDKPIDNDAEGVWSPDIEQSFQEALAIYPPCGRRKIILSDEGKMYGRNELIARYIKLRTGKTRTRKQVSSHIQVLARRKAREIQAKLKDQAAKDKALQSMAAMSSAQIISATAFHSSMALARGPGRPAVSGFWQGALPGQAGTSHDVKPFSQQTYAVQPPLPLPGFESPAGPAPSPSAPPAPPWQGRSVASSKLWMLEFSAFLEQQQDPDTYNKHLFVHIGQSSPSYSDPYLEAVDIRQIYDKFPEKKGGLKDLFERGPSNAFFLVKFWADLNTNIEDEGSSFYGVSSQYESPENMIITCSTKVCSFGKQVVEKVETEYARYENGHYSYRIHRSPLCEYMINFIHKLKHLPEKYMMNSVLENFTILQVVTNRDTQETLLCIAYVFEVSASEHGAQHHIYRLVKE
Sequence of TEAD2 (Homo sapiens, UniProt Q15562) (Q15562 whole entry): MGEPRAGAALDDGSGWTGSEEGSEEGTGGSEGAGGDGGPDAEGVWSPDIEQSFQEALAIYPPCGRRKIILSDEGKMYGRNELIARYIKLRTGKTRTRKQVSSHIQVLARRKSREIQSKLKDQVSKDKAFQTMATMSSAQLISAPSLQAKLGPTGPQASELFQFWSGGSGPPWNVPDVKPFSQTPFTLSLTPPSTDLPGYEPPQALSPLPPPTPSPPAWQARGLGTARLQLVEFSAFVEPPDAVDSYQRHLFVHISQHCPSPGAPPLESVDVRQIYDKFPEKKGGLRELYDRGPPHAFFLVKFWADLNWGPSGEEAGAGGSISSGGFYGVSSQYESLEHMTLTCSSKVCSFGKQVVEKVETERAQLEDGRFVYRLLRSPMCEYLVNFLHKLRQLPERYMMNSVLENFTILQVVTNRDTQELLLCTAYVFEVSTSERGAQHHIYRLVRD
Sequence of TEAD1 (Homo sapiens, UniProt P28347) (P28347 whole entry): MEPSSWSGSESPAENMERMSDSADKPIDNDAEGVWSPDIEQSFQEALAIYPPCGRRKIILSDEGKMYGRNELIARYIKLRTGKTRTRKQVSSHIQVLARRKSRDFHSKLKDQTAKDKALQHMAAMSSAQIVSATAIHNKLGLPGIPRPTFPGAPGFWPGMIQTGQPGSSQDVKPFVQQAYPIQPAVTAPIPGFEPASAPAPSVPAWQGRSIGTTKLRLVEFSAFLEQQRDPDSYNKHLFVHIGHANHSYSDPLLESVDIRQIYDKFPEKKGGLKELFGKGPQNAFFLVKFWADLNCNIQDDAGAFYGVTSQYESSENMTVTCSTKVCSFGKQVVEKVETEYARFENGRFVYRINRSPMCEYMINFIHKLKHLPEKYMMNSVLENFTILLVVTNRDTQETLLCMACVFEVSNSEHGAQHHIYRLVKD
Sequence of TEAD3 (Homo sapiens, UniProt Q99594) (Q99594 whole entry): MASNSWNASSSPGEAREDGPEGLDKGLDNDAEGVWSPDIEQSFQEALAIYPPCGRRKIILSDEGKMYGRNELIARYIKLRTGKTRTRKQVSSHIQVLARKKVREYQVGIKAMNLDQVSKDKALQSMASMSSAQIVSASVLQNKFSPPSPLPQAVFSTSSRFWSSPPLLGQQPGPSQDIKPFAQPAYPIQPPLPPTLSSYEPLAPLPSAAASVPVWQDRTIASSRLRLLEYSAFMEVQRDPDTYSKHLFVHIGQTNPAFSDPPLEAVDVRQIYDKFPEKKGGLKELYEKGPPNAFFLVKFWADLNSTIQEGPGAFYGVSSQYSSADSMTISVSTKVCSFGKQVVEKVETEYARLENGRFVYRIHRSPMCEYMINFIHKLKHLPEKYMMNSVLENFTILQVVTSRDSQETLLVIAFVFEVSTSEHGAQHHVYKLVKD

C[C@H](NC(=O)c1ccc2c(-c3ccc(C(F)(F)F)cc3)cccc2c1)c1cccc(N)n1 [Compound 1-4]
TEAD1 ΔTm (TEAD1 [1]; [14]): 7.5 °C
TEAD1 ΔTm (TEAD1 [1]; [15]): 11 °C
TEAD2 ΔTm (TEAD2 [2]; [14]): 2.5 °C
TEAD2 ΔTm (TEAD2 [2]; [15]): 11 °C
TEAD3 ΔTm (TEAD3 [3]; [14]): 3 °C
TEAD4 ΔTm (TEAD4 [4]; [14]): 1.5 °C
TEAD4 ΔTm (TEAD4 [4]; [15]): 11 °C
thermal shift / TEAD binding (in words) (TEAD isoforms 1-4 [5]): thermal shifts for all four TEAD isoforms
known TEAD inhibition (in words) (TEAD): pan-TEAD inhibitor

C[C@H](CO)NC(=O)c1ccc2c(Oc3ccc(C(F)(F)F)cc3)cccc2c1 [VT3989]
TEAD1 ΔTm (TEAD1 [6]): 11.6 °C
TEAD2 ΔTm (TEAD2 [7]): 8.8 °C
TEAD3 ΔTm (TEAD3 [8]): 8.5 °C
TEAD4 ΔTm (TEAD4 [9]): 4.6 °C
TEAD isoform interaction / binding (in words) (TEAD isoforms 1-4 [10]): primarily interacts with TEAD1-3; also recorded: lower levels of binding to TEAD4
selectivity over TEAD2 and 3 (in words) (TEAD isoforms 1-4 [10]): minimal selectivity over TEAD2 and 3

Cn1cnc(-c2cc(C3(C)CCNC3=O)ccc2Nc2ccc(C(F)(F)F)cc2)c1 (racemic) [Compound 2, 3-methyl-3-(3-(1-methyl-1H-imidazol-4-yl)-4-((4-(trifluoromethyl)phenyl)amino)phenyl) pyrrolidin-2-one]
pEC50 (NCI-H226 cells [11]): > 6.70
pIC50 (NCI-H23 cells): < 6.00
pIC50 (NCI-H226 cells [12]): > 6.70

CNS(=O)(=O)c1ccc(Nc2ccc(C(F)(F)F)cc2)c(-c2cn(C)cn2)c1 [Compound 1-1]
pEC50 (SDM103T2 cells): > 6.70
TEAD2 ΔTm (TEAD2 [2]; [15]): 1 °C
TEAD3 ΔTm (TEAD3 [3]; [15]): 0 °C
TEAD4 ΔTm (TEAD4 [4]; [15]): 1 °C
thermal shift / TEAD binding (in words) (TEAD isoforms 1-4 [5]): pronounced thermal shift only for TEAD1
change in tumor volume (in words) (MSTO-211H xenograft): Tumor growth was observed
known TEAD inhibition (in words) (TEAD): known strong TEAD1 and weak TEAD2 inhibitor
half-life (in words) [13]: long half-life

Cc1nnc(-c2cc(C3(C)CCNC3=O)ccc2Nc2ccc(C(F)(F)F)cc2)o1 (racemic) [Compound 1, 3-methyl-3-(3-(5-methyl-1,3,4-oxadiazol-2-yl)-4-((4-(trifluoromethyl)phenyl)amino)phenyl) pyrrolidin-2-one]
pEC50 (NCI-H226 cells [11]): > 6.70
pIC50 (NCI-H23 cells): < 6.00
pIC50 (NCI-H226 cells [12]): > 6.70
